Laboratory results as given in paper PMC6151660 (Molecules : A Journal of Synthetic Chemistry and Natural …, 2017).

Tested on: M. tuberculosis moxifloxacin resistant mutants (G88C, A90V, D94G in gyrase A) and H37Rv
Assay type: cell-based, Mycobacterium tuberculosis

## Cc1cc(=O)oc2cc(OCCN3CCN(Cc4ccc(Br)cc4)CC3)ccc12 [CM12]
  activity in fluoroquinolone resistant strains: maintained potency in all evaluated strains
  growth inhibition compared with moxifloxacin: growth inhibition in similar ranges to moxifloxacin

## Cc1c(C#N)c(=O)oc2cc(OCCN3CCN(Cc4ccc(Br)cc4)CC3)ccc12 [CM14]
  activity in fluoroquinolone resistant strains: maintained potency in all evaluated strains
  growth inhibition compared with moxifloxacin: growth inhibition in similar ranges to moxifloxacin
